Assay results: PubChem BioAssay AID1963866 (Molecular Pharmacology Branch, DTP, NCI, 2024)

Tested on: PDC KRAS tumor spheroids with HUVEC/MSC, viability
Assay: Anticancer human tumor 349418-098-R-PDC patient-derived lung adenocarcinoma cell line growth inhibition [KRAS2]
Conditions: for IC50: curve of first compound; for viability, T/C: stronger effect = lower value
How it was run: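 KRAS-mutant tumor cells were grown as spheroids with HUVEC endothelial cells and human MSCs as stroma. Targeted agents were tested alone and with KRAS pathway inhibitors. Doses started at or near clinical Cmax, or 10 microM, descending half-log.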

[1] = second compound 0.1 µM, first compound 0.01 µM
[2] = second compound 0.1 µM, first compound 0.0316 µM
[3] = second compound 0.1 µM, first compound 0.1 µM
[4] = second compound 0.1 µM, first compound 0.316 µM
[5] = second compound 0.1 µM, first compound 1 µM
[6] = second compound 0.1 µM, first compound 3.16 µM
[7] = second compound 0.316 µM, first compound 0.01 µM
[8] = second compound 0.316 µM, first compound 0.0316 µM
[9] = second compound 0.316 µM, first compound 0.1 µM
[10] = second compound 0.316 µM, first compound 0.316 µM
[11] = second compound 0.316 µM, first compound 1 µM
[12] = second compound 0.316 µM, first compound 3.16 µM
[13] = second compound 1 µM, first compound 0.01 µM
[14] = second compound 1 µM, first compound 0.0316 µM
[15] = second compound 1 µM, first compound 0.1 µM
[16] = second compound 1 µM, first compound 0.316 µM
[17] = second compound 1 µM, first compound 1 µM
[18] = second compound 1 µM, first compound 3.16 µM
[19] = second compound 3.16 µM, first compound 0.01 µM
[20] = second compound 3.16 µM, first compound 0.0316 µM
[21] = second compound 3.16 µM, first compound 0.1 µM
[22] = second compound 3.16 µM, first compound 0.316 µM
[23] = second compound 3.16 µM, first compound 1 µM
[24] = second compound 3.16 µM, first compound 3.16 µM
[25] = second compound 10 µM, first compound 0.01 µM
[26] = second compound 10 µM, first compound 0.0316 µM
[27] = second compound 10 µM, first compound 0.1 µM
[28] = second compound 10 µM, first compound 0.316 µM
[29] = second compound 10 µM, first compound 1 µM
[30] = second compound 10 µM, first compound 3.16 µM
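Further: spheroids exposed to compounds for seven days before readout.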

Compound | IC50 (second compound 0.1 µM) | IC50 (second compound 0.316 µM) | IC50 (second compound 1 µM) | IC50 (second compound 3.16 µM) | IC50 (second compound 10 µM) | viability, T/C [1] | viability, T/C [2] | viability, T/C [3] | viability, T/C [4] | viability, T/C [5] | viability, T/C [6] | viability, T/C [7] | viability, T/C [8] | viability, T/C [9] | viability, T/C [14] | viability, T/C [15] | viability, T/C [20] | viability, T/C [21] | viability, T/C [26] | viability, T/C [27] | other results
CC(=O)OC12COC1CC(O)C1(C)C(=O)C(O)C3=C(C)C(OC(=O)C(O)C(NC(=O)OC(C)(C)C)c4ccccc4)CC(O)(C(OC(=O)c4ccccc4)C21)C3(C)C (stereo not given) + CNCc1ccccc1-c1csc(C(C)Nc2nc(C)nc3cc(OC)c(OC)cc23)c1 | < 10 nM | < 10 nM | < 10 nM | < 10 nM | < 10 nM | 13.4% | 14.8% | 18.9% | 17.3% | 22% | 24.9% | 10.7% | 13.9% | 15.6% | 15.3% | 15% | 0.13% | 0.09% | 0.12% | 0.12% | viability, T/C [10]: 17.8%; viability, T/C [11]: 21%; viability, T/C [12]: 21.6%; viability, T/C [13]: 11%; viability, T/C [16]: 21.2%; viability, T/C [17]: 23.8%; viability, T/C [18]: 24.2%; viability, T/C [19]: 8.03%; viability, T/C [22]: 0.15%; viability, T/C [23]: 0.1%; viability, T/C [24]: 23.6%; viability, T/C [25]: 0.19%; viability, T/C [28]: 0.17%; viability, T/C [29]: 22.6%; viability, T/C [30]: 0.21%
CN(C)C/C=C/C(=O)Nc1cc2c(Nc3ccc(F)c(Cl)c3)ncnc2cc1O[C@H]1CCOC1 + CNCc1ccccc1-c1csc(C(C)Nc2nc(C)nc3cc(OC)c(OC)cc23)c1 | > 100 nM | > 100 nM | > 100 nM | < 0.316 nM | < 0.316 nM | 97% | 108% | 91.5% | – | – | – | 99.9% | 97.8% | 91.2% | 84.9% | 95.4% | 0.63% | 0.26% | 0.08% | 0.13% | viability, T/C (second compound 0.1 µM, first compound 0.000316 µM): 105%; viability, T/C (second compound 0.1 µM, first compound 0.001 µM): 108%; viability, T/C (second compound 0.1 µM, first compound 0.00316 µM): 102%; viability, T/C (second compound 0.316 µM, first compound 0.000316 µM): 98.2%; viability, T/C (second compound 0.316 µM, first compound 0.001 µM): 103%; viability, T/C (second compound 0.316 µM, first compound 0.00316 µM): 103%; viability, T/C (second compound 1 µM, first compound 0.000316 µM): 107%; viability, T/C (second compound 1 µM, first compound 0.001 µM): 104%; viability, T/C (second compound 1 µM, first compound 0.00316 µM): 87.7%; viability, T/C [13]: 94.2%; viability, T/C (second compound 3.16 µM, first compound 0.000316 µM): 0.27%; viability, T/C (second compound 3.16 µM, first compound 0.001 µM): 0.17%; viability, T/C (second compound 3.16 µM, first compound 0.00316 µM): 0.19%; viability, T/C [19]: 0.41%; viability, T/C (second compound 10 µM, first compound 0.000316 µM): 0.08%; viability, T/C (second compound 10 µM, first compound 0.001 µM): 0.07%; viability, T/C (second compound 10 µM, first compound 0.00316 µM): 0.07%; viability, T/C [25]: 0.08%
O=C(c1cc(Cc2n[nH]c(=O)c3ccccc23)ccc1F)N1CCN(C(=O)C2CC2)CC1 + CNCc1ccccc1-c1csc(C(C)Nc2nc(C)nc3cc(OC)c(OC)cc23)c1 | 4090 nM | 2900 nM | 2530 nM | < 31.6 nM | < 31.6 nM | – | 101% | 99.5% | 83% | 71% | 58.1% | – | 107% | 101% | 99.5% | 77.8% | 0.19% | 0.21% | 0.08% | 0.08% | viability, T/C (second compound 0.1 µM, first compound 10 µM): 31.4%; viability, T/C [10]: 78.5%; viability, T/C [11]: 69.7%; viability, T/C [12]: 48.4%; viability, T/C (second compound 0.316 µM, first compound 10 µM): 29%; viability, T/C [16]: 75.3%; viability, T/C [17]: 69.6%; viability, T/C [18]: 45.3%; viability, T/C (second compound 1 µM, first compound 10 µM): 27.8%; viability, T/C [22]: 0.12%; viability, T/C [23]: 0.11%; viability, T/C [24]: 0.1%; viability, T/C (second compound 3.16 µM, first compound 10 µM): 0.11%; viability, T/C [28]: 0.08%; viability, T/C [29]: 0.07%; viability, T/C [30]: 0.07%; viability, T/C (second compound 10 µM, first compound 10 µM): 0.17%
